Measured values published in ChEMBL document CHEMBL5576067, “Synthesis and biological evaluation of novel 1,2,3,4-tetrahydro-β-carboline derivatives as potential antibacterial agents” (Bioorg Med Chem Lett, 2024).
Values after ≈ are worked out from the molar mass of the structure shown.

Columns and labels:
Format in all cases: functional
Ralstonia solanacearum = experiment: Antibacterial activity against Ralstonia solanacearum assessed as inhibition of bacterial growth incubated for 24 hrs by broth microdilution method
Enterococcus faecium = experiment: Antibacterial activity against vancomycin-resistant Enterococcus faecium ATCC 700221 assessed as inhibition of bacterial growth incubated for 24 hrs by broth microdilution method
Escherichia coli = experiment: Antibacterial activity against Escherichia coli ATCC25922 assessed as inhibition of bacterial growth incubated for 24 hrs by broth microdilution method
Staphylococcus aureus [1] = experiment: Antibacterial activity against methicillin resistant Staphylococcus aureus ATCC33591 assessed as inhibition of bacterial growth incubated for 24 hrs by broth microdilution method
Staphylococcus aureus [2] = experiment: Antibacterial activity against Staphylococcus aureus ATCC25923 assessed as inhibition of bacterial growth incubated for 24 hrs by broth microdilution method
[3] = Antibacterial activity against Pseudomonas syringae pv. actinidiae assessed as inhibition of bacterial growth incubated for 24 hrs by broth microdilution method
Staphylococcus aureus [4] = experiment: Ratio of MBC to MIC for Staphylococcus aureus ATCC25923
Staphylococcus aureus [5] = experiment: Bactericidal activity against Staphylococcus aureus ATCC25923 assessed as inhibition of bacterial growth incubated for 24 hrs by resazurin dye based analysis
Staphylococcus aureus [6] = experiment: Bactericidal activity against methicillin resistant Staphylococcus aureus ATCC33591 assessed as inhibition of bacterial growth incubated for 24 hrs by resazurin dye based analysis

| Structure (SMILES) | MIC (Ralstonia solanacearum) | MIC (Enterococcus faecium) | MIC (Escherichia coli) | MIC (Staphylococcus aureus [1]) | MIC (Staphylococcus aureus [2]) | MIC [3] | Ratio (Staphylococcus aureus [4]) | MBC (Staphylococcus aureus [5]) | MBC (Staphylococcus aureus [6]) |
| --- | --- | --- | --- | --- | --- | --- | --- | --- | --- |
| CN1CCc2c([nH]c3ccccc23)C1c1ccc(NC(=O)c2ccc([N+](=O)[O-])cc2)cc1 (stereo not drawn) | 32 µg/mL (≈ 75 µM) | > 128 µg/mL | 32 µg/mL (≈ 75 µM) | 16 µg/mL (≈ 37.5 µM) | 32 µg/mL (≈ 75 µM) | 32 µg/mL (≈ 75 µM) | – | – | – |
| O=C(Nc1ccc(C2NCCc3c2[nH]c2ccccc32)cc1)c1cccc([N+](=O)[O-])c1 (stereo not drawn) | 16 µg/mL (≈ 38.8 µM) | > 128 µg/mL | 16 µg/mL (≈ 38.8 µM) | 16 µg/mL (≈ 38.8 µM) | 8 µg/mL (≈ 19.4 µM) | 32 µg/mL (≈ 77.6 µM) | – | – | – |
| CN1CCc2c([nH]c3ccccc23)C1c1ccc(NC(=O)c2cc(C(F)(F)F)cc(C(F)(F)F)c2)cc1 (stereo not drawn) | 128 µg/mL (≈ 247 µM) | > 128 µg/mL | 128 µg/mL (≈ 247 µM) | 32 µg/mL (≈ 61.8 µM) | 16 µg/mL (≈ 30.9 µM) | > 128 µg/mL | – | – | – |
| CN1CCc2c([nH]c3ccccc23)C1c1ccc(NC(=O)c2cccc(C(F)(F)F)c2)cc1 (stereo not drawn) | 16 µg/mL (≈ 35.6 µM) | > 128 µg/mL | 32 µg/mL (≈ 71.2 µM) | 32 µg/mL (≈ 71.2 µM) | 32 µg/mL (≈ 71.2 µM) | 32 µg/mL (≈ 71.2 µM) | – | – | – |
| CN1CCc2c([nH]c3ccccc23)C1c1ccc(NC(=O)c2cccc(Cl)c2)cc1 (stereo not drawn) | 16 µg/mL (≈ 38.5 µM) | > 128 µg/mL | 16 µg/mL (≈ 38.5 µM) | 8 µg/mL (≈ 19.2 µM) | 16 µg/mL (≈ 38.5 µM) | 64 µg/mL (≈ 154 µM) | – | – | – |
| O=C(Nc1ccc(C2NCCc3c2[nH]c2ccccc32)cc1)c1ccc([N+](=O)[O-])cc1 (stereo not drawn) | 8 µg/mL (≈ 19.4 µM) | > 128 µg/mL | 8 µg/mL (≈ 19.4 µM) | 4 µg/mL (≈ 9.7 µM) | 8 µg/mL (≈ 19.4 µM) | 32 µg/mL (≈ 77.6 µM) | – | – | – |
| CN1CCc2c([nH]c3ccccc23)C1c1ccc(NC(=O)c2ccc(Cl)cc2)cc1 (stereo not drawn) | 32 µg/mL (≈ 76.9 µM) | > 128 µg/mL | 32 µg/mL (≈ 76.9 µM) | 16 µg/mL (≈ 38.5 µM) | 8 µg/mL (≈ 19.2 µM) | 64 µg/mL (≈ 154 µM) | – | – | – |
| Cc1ccccc1C(=O)Nc1ccc(C2NCCc3c2[nH]c2ccccc32)cc1 (stereo not drawn) | 128 µg/mL (≈ 336 µM) | > 128 µg/mL | 64 µg/mL (≈ 168 µM) | 32 µg/mL (≈ 83.9 µM) | 32 µg/mL (≈ 83.9 µM) | 128 µg/mL (≈ 336 µM) | – | – | – |
| CN1CCc2c([nH]c3ccccc23)C1c1ccc(NC(=O)c2ccc(F)c(C(F)(F)F)c2)cc1 (stereo not drawn) | 16 µg/mL (≈ 34.2 µM) | > 128 µg/mL | 16 µg/mL (≈ 34.2 µM) | 8 µg/mL (≈ 17.1 µM) | 16 µg/mL (≈ 34.2 µM) | 64 µg/mL (≈ 137 µM) | – | – | – |
| O=C(Nc1ccc(C2NCCc3c2[nH]c2ccccc32)cc1)c1ccccc1F (stereo not drawn) | 128 µg/mL (≈ 332 µM) | > 128 µg/mL | 64 µg/mL (≈ 166 µM) | 32 µg/mL (≈ 83 µM) | 32 µg/mL (≈ 83 µM) | 64 µg/mL (≈ 166 µM) | – | – | – |
| O=C(Nc1ccc(C2NCCc3c2[nH]c2ccccc32)cc1)c1cc(C(F)(F)F)cc(C(F)(F)F)c1 (stereo not drawn) | 128 µg/mL (≈ 254 µM) | > 128 µg/mL | 128 µg/mL (≈ 254 µM) | 16 µg/mL (≈ 31.8 µM) | 16 µg/mL (≈ 31.8 µM) | 64 µg/mL (≈ 127 µM) | – | – | – |
| CN1CCc2c([nH]c3ccccc23)C1c1ccc(NC(=O)c2ccc(C(F)(F)F)cc2)cc1 (stereo not drawn) | 16 µg/mL (≈ 35.6 µM) | 128 µg/mL (≈ 285 µM) | 16 µg/mL (≈ 35.6 µM) | 8 µg/mL (≈ 17.8 µM) | 8 µg/mL (≈ 17.8 µM) | 32 µg/mL (≈ 71.2 µM) | – | – | – |
| O=C(Nc1ccc(C2NCCc3c2[nH]c2ccccc32)cc1)c1ccc(F)c(C(F)(F)F)c1 (stereo not drawn) | 16 µg/mL (≈ 35.3 µM) | > 128 µg/mL | 8 µg/mL (≈ 17.6 µM) | 8 µg/mL (≈ 17.6 µM) | 4 µg/mL (≈ 8.82 µM) | 32 µg/mL (≈ 70.6 µM) | – | – | – |
| Cc1cccc(C(=O)Nc2ccc(C3c4[nH]c5ccccc5c4CCN3C)cc2)c1 (stereo not drawn) | 32 µg/mL (≈ 80.9 µM) | > 128 µg/mL | 64 µg/mL (≈ 162 µM) | 64 µg/mL (≈ 162 µM) | 32 µg/mL (≈ 80.9 µM) | 32 µg/mL (≈ 80.9 µM) | – | – | – |
| O=C(Nc1ccc(C2NCCc3c2[nH]c2ccccc32)cc1)c1cccc(F)c1 (stereo not drawn) | 8 µg/mL (≈ 20.8 µM) | > 128 µg/mL | 16 µg/mL (≈ 41.5 µM) | 4 µg/mL (≈ 10.4 µM) | 16 µg/mL (≈ 41.5 µM) | 32 µg/mL (≈ 83 µM) | – | – | – |
| CN1CCc2c([nH]c3ccccc23)C1c1ccc(NC(=O)c2ccccc2)cc1 (stereo not drawn) | 128 µg/mL (≈ 336 µM) | > 128 µg/mL | 128 µg/mL (≈ 336 µM) | 128 µg/mL (≈ 336 µM) | 128 µg/mL (≈ 336 µM) | 64 µg/mL (≈ 168 µM) | – | – | – |
| Cc1cccc(C(=O)Nc2ccc(C3NCCc4c3[nH]c3ccccc43)cc2)c1 (stereo not drawn) | 32 µg/mL (≈ 83.9 µM) | > 128 µg/mL | 32 µg/mL (≈ 83.9 µM) | 64 µg/mL (≈ 168 µM) | 32 µg/mL (≈ 83.9 µM) | 32 µg/mL (≈ 83.9 µM) | – | – | – |
| CN1CCc2c([nH]c3ccccc23)C1c1ccc(NC(=O)c2ccc(Br)cc2)cc1 (stereo not drawn) | 32 µg/mL (≈ 69.5 µM) | > 128 µg/mL | 32 µg/mL (≈ 69.5 µM) | 32 µg/mL (≈ 69.5 µM) | 32 µg/mL (≈ 69.5 µM) | 64 µg/mL (≈ 139 µM) | – | – | – |
| CN1CCc2c([nH]c3ccccc23)C1c1ccc(NC(=O)c2ccc(F)cc2)cc1 (stereo not drawn) | 16 µg/mL (≈ 40.1 µM) | > 128 µg/mL | 16 µg/mL (≈ 40.1 µM) | 8 µg/mL (≈ 20 µM) | 4 µg/mL (≈ 10 µM) | 128 µg/mL (≈ 320 µM) | – | – | – |
| CN1CCc2c([nH]c3ccccc23)C1c1ccc(NC(=O)c2cccc([N+](=O)[O-])c2)cc1 (stereo not drawn) | 64 µg/mL (≈ 150 µM) | > 128 µg/mL | 64 µg/mL (≈ 150 µM) | 64 µg/mL (≈ 150 µM) | 64 µg/mL (≈ 150 µM) | > 128 µg/mL | – | – | – |
| CN1CCc2c([nH]c3ccccc23)C1c1ccc(NC(=O)c2ccccc2F)cc1 (stereo not drawn) | 128 µg/mL (≈ 320 µM) | > 128 µg/mL | 64 µg/mL (≈ 160 µM) | 32 µg/mL (≈ 80.1 µM) | 64 µg/mL (≈ 160 µM) | 32 µg/mL (≈ 80.1 µM) | – | – | – |
| COC(=O)c1ccc(C(=O)Nc2ccc(C3NCCc4c3[nH]c3ccccc43)cc2)cc1 (stereo not drawn) | 16 µg/mL (≈ 37.6 µM) | > 128 µg/mL | 16 µg/mL (≈ 37.6 µM) | 32 µg/mL (≈ 75.2 µM) | 16 µg/mL (≈ 37.6 µM) | 16 µg/mL (≈ 37.6 µM) | – | – | – |
| O=C(Nc1ccc(C2NCCc3c2[nH]c2ccccc32)cc1)c1cccc(Cl)c1 (stereo not drawn) | 8 µg/mL (≈ 19.9 µM) | > 128 µg/mL | 8 µg/mL (≈ 19.9 µM) | 8 µg/mL (≈ 19.9 µM) | 16 µg/mL (≈ 39.8 µM) | 64 µg/mL (≈ 159 µM) | – | – | – |
| O=C(Nc1ccc(C2NCCc3c2[nH]c2ccccc32)cc1)c1cccc(C(F)(F)F)c1 (stereo not drawn) | 16 µg/mL (≈ 36.7 µM) | 128 µg/mL (≈ 294 µM) | 8 µg/mL (≈ 18.4 µM) | 4 µg/mL (≈ 9.19 µM) | 8 µg/mL (≈ 18.4 µM) | 32 µg/mL (≈ 73.5 µM) | – | – | – |
| COC(=O)c1ccc(C(=O)Nc2ccc(C3c4[nH]c5ccccc5c4CCN3C)cc2)cc1 (stereo not drawn) | 128 µg/mL (≈ 291 µM) | > 128 µg/mL | 128 µg/mL (≈ 291 µM) | 32 µg/mL (≈ 72.8 µM) | 64 µg/mL (≈ 146 µM) | 32 µg/mL (≈ 72.8 µM) | – | – | – |
| Cc1ccccc1C(=O)Nc1ccc(C2c3[nH]c4ccccc4c3CCN2C)cc1 (stereo not drawn) | 128 µg/mL (≈ 324 µM) | > 128 µg/mL | 64 µg/mL (≈ 162 µM) | 32 µg/mL (≈ 80.9 µM) | 64 µg/mL (≈ 162 µM) | 64 µg/mL (≈ 162 µM) | – | – | – |
| O=C(Nc1ccc(C2NCCc3c2[nH]c2ccccc32)cc1)c1ccccc1 (stereo not drawn) | 32 µg/mL (≈ 87.1 µM) | > 128 µg/mL | 64 µg/mL (≈ 174 µM) | 128 µg/mL (≈ 348 µM) | 128 µg/mL (≈ 348 µM) | 32 µg/mL (≈ 87.1 µM) | – | – | – |
| O=C(Nc1ccc(C2NCCc3c2[nH]c2ccccc32)cc1)c1ccc(Br)cc1 (stereo not drawn) | 32 µg/mL (≈ 71.7 µM) | > 128 µg/mL | 8 µg/mL (≈ 17.9 µM) | 32 µg/mL (≈ 71.7 µM) | 32 µg/mL (≈ 71.7 µM) | 16 µg/mL (≈ 35.8 µM) | – | – | – |
| CN1CCc2c([nH]c3ccccc23)C1c1ccc(NC(=O)c2cccc(F)c2)cc1 (stereo not drawn) | 16 µg/mL (≈ 40.1 µM) | > 128 µg/mL | 16 µg/mL (≈ 40.1 µM) | 4 µg/mL (≈ 10 µM) | 32 µg/mL (≈ 80.1 µM) | 16 µg/mL (≈ 40.1 µM) | – | – | – |
| O=C(Nc1ccc(C2NCCc3c2[nH]c2ccccc32)cc1)c1ccc(Cl)cc1 (stereo not drawn) | 8 µg/mL (≈ 19.9 µM) | > 128 µg/mL | 16 µg/mL (≈ 39.8 µM) | 8 µg/mL (≈ 19.9 µM) | 4 µg/mL (≈ 9.95 µM) | 128 µg/mL (≈ 318 µM) | 1 | 32 µg/mL (≈ 79.6 µM) | 16 µg/mL (≈ 39.8 µM) |
